According to patent US11064704B2, “Natural product formulations with improved residual insect repellent/deterrent activity” (University of Mississippi, priority 2016, dated 2021):

Assays:
Aedes aegypti females = experiment: in vivo cloth patch repellent bioassay; conditions: for residual repellent activity: time post treatment at which activity lost: 12.5 μg/cm^2; for minimum effective dose (MED): cloth patch, 1 minute exposure
Procedure: (§1) Cloth patch bioassays were conducted by using in vivo bioassay system described by Katritzky et al. (2008, 2010), with minor modifications. Approximately 500 (±5%) mosquitoes, consisting primarily of females, were transferred into a test cage (45×45×45 cm) using an aspirator. A series of dosages of test compounds were tested to determine MED for repellency of the mosquitoes. MED refers to a concentration of the compound at which biting is less than or equal to 1% (i.e. less than or equal to 5 out of 500 females in the cage) during a 1 minute exposure time. A series of concentrations ranging between 6.25 to 100 μg/cm^2 were tested in the A&K bioassay.
(§2) A single test consisted of covering the hand of a volunteer with a soft-embossed long cuff poly glove (Atlantis Products, Mankato, Minn.), then by a powder-free latex glove (Diamond Grip, Microflex Corporation, Reno, Nev.). The arm was then covered with a knee high stocking (Leggs® Everyday Knee Highs, Winston-Salem N.C. 27102) to avoid the contact of treated muslin cloth with the skin. A plastic sleeve constructed of polyvinyl was then placed around the arm. Velcro strips were used to fix the plastic sleeve around the arm. About half-way between the wrist and elbow, a 4×7.5 cm slit in the plastic sleeve was used to assess mosquito landing and biting behavior. This opening permitted the attractive odors from the skin surface to emanate out and attract mosquitoes through this opening. During testing, this 30 cm^2 open area was covered with a piece of treated muslin cloth. Because of constraint of man power, only one volunteer who was provided written informed consent participated in this study. A protocol approved by the University of Mississippi Human Use Institutional Review Board (IRB protocol #15-070) was followed.
(§3) Stock solutions with concentration of 80 μg/ul were prepared in ethanol. Concentrations ranging between 6.25 to 100 μg/cm^2 were selected for testing based on previous experience of the inventors with the A&K bioassay. A piece of muslin cloth measuring 8×13 cm in size was used. An area of 4×7.5 cm was marked in the center of muslin cloth. Approximately 2.5×7 cm pieces of cardboard were attached by staples on the sides of the muslin cloth. Treatments were applied to the marked area of the cloth in 215 μL volume using a pipetter. After drying, the treated muslin cloth was secured on the opening of the plastic sleeve by using an adhesive tape.
(§4) The test started when the arm with sleeve and treated muslin cloth was inserted into the mosquito cage. […] Residual activity was determined by exposing the females to the treated muslin cloth at an interval of 30 minutes. The treated muslin patch was kept on the arm after the initial treatment and tested every half an hour thereafter.
(§5) Testing started at the highest dose (100 μg/cm^2) and the dose was lowered to reach the MED. Because the mosquitoes show reduced behavioral activity upon repeated exposure to repellent odors from the arm, after 5 successive exposures of the treatments, the caged mosquitoes were allowed a 15 min recovery period.

[1] = tested on: Anopheles quadrimaculatus females; experiment: in vivo cloth patch repellent bioassay
Procedure: as §1, §2, §3, §4, §5

Aedes albopictus females = experiment: in vivo cloth patch repellent bioassay
Procedure: as §1, §2, §3, §4, §5

Aedes aegypti = experiment: in vitro Klun and Debboun (K&D) biting deterrent bioassay; assay type: in vivo
Procedure: Experiments were conducted by using a six-celled in vitro Klun and Debboun (K&D) module bioassay system developed by Klun et al. (2005) for quantitative evaluation of biting deterrence. Briefly, the assay system consists of a six well reservoir with each of the 3×4 cm wells containing 6 mL of blood or feeding solution. As described by Ali et al. (2012), a feeding solution consisting of CPDA-1 and ATP was used instead of blood. Green fluorescent tracer dye (www.blacklightworld.com) was used to determine the feeding by the females. Carrot seed essential oil was initially tested to determine the biting deterrent activity. […] Essential oil and carotol were further tested against Ae. aegypti and An. quadrimaculatus in this bioassay. Treatments of carrot seed essential oil at 10 μg/cm^2 and carotol were tested at 10 and 5 μg/cm^2, whereas DEET (97% N,N-diethyl-meta-toluamide) (Sigma Aldrich, St. Louis, Mo.) at 25 nmol/cm^2 was used as positive control. All the treatments were freshly prepared in molecular biology grade 100% ethanol (Fisher Scientific Chemical Co. Fairlawn, N.J.) at the time of bioassay.
The temperature of the solution in the reservoirs was maintained at 37° C. by continuously passing warm water through the reservoir using a circulatory bath. The reservoirs were covered with a layer of collagen membrane (Devro, Sandy Run, S.C.). The test compounds were randomly applied to six 4×5 cm areas of organdy cloth and positioned over the membrane-covered CPDA-1+ATP solution with a Teflon® separator placed between the treated cloth and the six-celled module to prevent the contamination of the module. A six-celled K&D module containing five female mosquitoes per cell was positioned over cloth treatments covering the six CPDA-1+ATP solution membrane wells, and trap doors were opened to expose the treatments to these females. The number of mosquitoes biting through organdy treatments in each cell was recorded after a 3 minute exposure, and mosquitoes were prodded back into the cells to check the actual feeding. Mosquitoes were squashed and the presence of green fluorescent tracer dye (or not) in the gut was used as an indicator of feeding. A replicate consisted of six treatments: four test compounds, DEET (a standard biting deterrent) and ethanol-treated organdy as solvent control applied randomly. Sets of 5 replications each with 5 females per treatment were conducted on 2-3 different days using newly-treated organdy and a new batch of females in each replication. Treatments were replicated 10-15 times. Proportion not biting (PNB) was calculated using the procedure described by Ali et al. (2012).

For CCN(CC)C(=O)c1cccc(C)c1 [DEET, N,N-diethyl-meta-toluamide, reference compound], the “residual repellent activity: time post treatment at which activity lost” value (Aedes aegypti females) was 30 min, the “minimum effective dose (MED)” value (Aedes aegypti females) was 12.5 μg/cm^2 and the “minimum effective dose (MED)” value [1] was 6.25 μg/cm^2. The “minimum effective dose (MED)” value (Aedes albopictus females) was 12.5 μg/cm^2 and the “proportion not biting (PNB)” value (Aedes aegypti; 25 nmol/cm^2) was 0.85.
For CC1=CC[C@]2(C)CC[C@@H](C(C)C)[C@]2(O)CC1 [carotol], the “residual repellent activity: time post treatment at which activity lost” value (Aedes aegypti females) was “failed”, the “residual repellent activity like DEET: time post treatment up to” value (Aedes aegypti females; 25 μg/cm^2) was 120 min and the “residual repellent activity like DEET: time post treatment up to” value (Aedes aegypti females; 50 μg/cm^2) was 120 min. The “minimum effective dose (MED)” value (Aedes aegypti females) was 25 μg/cm^2, the “minimum effective dose (MED)” value [1] was 6.25 μg/cm^2 and the “minimum effective dose (MED)” value (Aedes albopictus females) was 12.5 μg/cm^2. The “proportion not biting (PNB)” value (Aedes aegypti; 5 μg/cm^2) was 0.66, the “proportion not biting (PNB)” value (Aedes aegypti; 10 μg/cm^2) was 0.9 and the “biting deterrent activity” value (Aedes aegypti; compared with DEET) was “comparable to DEET”.
